The source of these data is patent publication US12629374B2, “Antimalarial agents” (Merck Sharp & Dohme LLC, priority 2020, dated 2026).

One test has as its system ring stage parasites. Briefly: Parasite growth potency assay, 72 hours, LDH readout. The class given is cell-based. Particulars: 72 h, parasite growth measured by LDH assay after 72 hours at 37° C.; 0.7% rings, 2% haematocrit; read-out: EC50. The method in brief: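 Parasite growth was quantified by LDH assay after a −80 °C freeze-thaw. Before that, compound was incubated for 72 h at 37 °C under humidified gas with ring-stage cultures adjusted to 0.7% parasitemia and 2% haematocrit in serum- and albumax-supplemented RPMI-Hepes.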
In general, EC50 refers to the concentration giving half of the maximal effect. For the compound `CCC1(CC)CC(=O)N(Cc2cccc(C(=O)N[C@@H]3c4ccccc4OCC3(C)O)c2)C(=N)N1` (stereo in doubt) [Example 131A, 3-[(4,4-diethyl-2-imino-6-oxo-hexahydropyrimidin-1-yl)methyl]-N-(3-hydroxy-3-methyl-chroman-4-yl)benzamide], the EC50 is 6.6 nM.
`C#CCC[C@@H](c1cccc(C(=O)NC2CC(C)(C)Oc3ccccc32)c1)N1C(=N)NC(CC)(CC)CC1=O` (stereo partly drawn) [Example 214A, 3-[(1S)-1-(4,4-diethyl-2-imino-6-oxo-hexahydropyrimidin-1-yl)pent-4-ynyl]-N-(2,2-dimethylchroman-4-yl)benzamide]: the concentration giving a half-maximal response (EC50) came out at 26.3 nM.
Still for that read-out and setting: then `CCC1(CC)CC(=O)N([C@H](CCOC)c2cccc(C(=O)N[C@@H]3c4ccccc4C[C@@H]3O)c2)C(=N)N1` [Example 202, [4,4-diethyl-1-[(1R)-1-[3-[[(1R,2S)-2-hydroxyindan-1-yl]carbamoyl]phenyl]-3-methoxy-propyl]-6-oxo-hexahydropyrimidin-2-ylidene]ammonium; 2,2,2-trifluoroacetate], with 5.3 nM.
The same measure, in the same setting: then `COCC[C@H](c1cncc(C(=O)N[C@H]2CC(C)(C)Oc3ccccc32)c1)N1C(=N)N[C@](C)(C(C)C)CC1=O` [Example 104, [(4S)-1-[1-[5-[[(4S)-2,2-dimethylchroman-4-yl]carbamoyl]pyridin-1-ium-3-yl]-3-methoxy-propyl]-4-isopropyl-4-methyl-6-oxo-hexahydropyrimidin-2-ylidene]ammonium; 2,2,2-trifluoroacetate], with 0.9 nM; and `CC#CCC[C@H](c1cncc(C(=O)N[C@H]2CC(C)(C)Oc3ccccc32)c1)N1C(=N)NC(CC)(CC)CC1=O` [Example 111, [1-[1-[5-[[(4S)-2,2-dimethylchroman-4-yl]carbamoyl]pyridin-1-ium-3-yl]hex-4-ynyl]-4,4-diethyl-6-oxo-hexahydropyrimidin-2-ylidene]ammonium; 2,2,2-trifluoroacetate], with 0.4 nM; and `CCC1(CC)CC(=O)N([C@@H](c2cccc(C(=O)N[C@H]3CC(C)(C)Oc4ccccc43)c2)C(C)c2cccnc2)C(=N)N1` (stereo partly drawn) [Example 96, [1-[1-[3-[[(4S)-2,2-dimethylchroman-4-yl]carbamoyl]phenyl]-2-pyridin-1-ium-3-yl-propyl]-4,4-diethyl-6-oxo-hexahydropyrimidin-2-ylidenelammonium; 2,2,2-trifluoroacetate], with 19.9 nM.
Still for that read-out and setting: then `CCC1(CC)CC(=O)N([C@H](CCC#N)c2cccc(C(=O)N[C@H]3CC(C)(C)Oc4ccccc43)c2)C(=N)N1` [Example 107, [1-[3-cyano-1-[3-[[(4S)-2,2-dimethylchroman-4-yl]carbamoyl]phenyl]propyl]-4,4-diethyl-6-oxo-hexahydropyrimidin-2-ylidene]ammonium; 2,2,2-trifluoroacetate], with 0.2 nM.
For `C#CCC[C@H](c1cccc(C(=O)N[C@H]2CC(C)(C)Oc3ccccc32)c1)N1C(=N)N[C@](C)(C(C)C)CC1=O` [Example 108A, [(4S)-1-[1-[3-[[(4S)-2,2-dimethylchroman-4-yl]carbamoyl]phenyl]pent-4-ynyl]-4-isopropyl-4-methyl-6-oxo-hexahydropyrimidin-2-ylidene]ammonium; 2,2,2-trifluoroacetate], the EC50 was 0.4 nM.
As to `CCC1(CC)CC(=O)N([C@H](c2cccnc2)c2cccc(C(=O)N[C@@H]3c4ccccc4C[C@H]3O)c2)C(=N)N1` [Example 109A, [4,4-diethyl-1-[[3-[[(1R,2R)-2-hydroxyindan-1-yl]carbamoyl]phenyl]-pyridin-1-ium-3-yl-methyl]-6-oxo-hexahydropyrimidin-2-ylidene]ammonium; 2,2,2-trifluoroacetate], the EC50 worked out at 1.6 nM.
Still for that read-out and setting: then `CCOCC[C@H](c1cccc(C(=O)N[C@@H]2c3ccccc3C[C@H]2O)c1)N1C(=N)NC(C)(C)CC1=O` [Example 171, [1-[3-ethoxy-1-[3-[[(1R,2R)-2-hydroxyindan-1-yl]carbamoyl]phenyl]propyl]-4,4-dimethyl-6-oxo-hexahydropyrimidin-2-ylidene]ammonium; 2,2,2-trifluoroacetate], with 5.2 nM; and `CCC1(CC)CC(=O)N([C@H](c2ccc(S(C)(=O)=O)cc2)c2cccc(C(=O)N[C@H]3CC(C)(C)Oc4ccccc43)c2)C(=N)N1` [Example 115A, [1-[[3-[[(4S)-2,2-dimethylchroman-4-yl]carbamoyl]phenyl]-(4-methylsulfonylphenyl)methyl]-4,4-diethyl-6-oxo-hexahydropyrimidin-2-ylidene]ammonium; 2,2,2-trifluoroacetate], with 1 nM; and `C#CCC[C@H](c1cncc(C(=O)N[C@H]2CC(C)(C)Oc3ccccc32)c1)N1C(=N)N[C@](C)(C(C)C)CC1=O` [Example 114A, [(4S)-1-[1-[5-[[(4S)-2,2-dimethylchroman-4-yl]carbamoyl]pyridin-1-ium-3-yl]pent-4-ynyl]-4-isopropyl-4-methyl-6-oxo-hexahydropyrimidin-2-ylidene]ammonium; 2,2,2-trifluoroacetate], with 0.3 nM.
As to `CC#CCC[C@H](c1cccc(C(=O)N[C@H]2CC(C)(C)Oc3ccccc32)c1)N1C(=N)NC(CC)(CC)CC1=O` (stereo in doubt) [Example 83B, [1-[1-[3-[(2,2-dimethylchroman-4-yl)carbamoyl]phenyl]hex-4-ynyl]-4,4-diethyl-6-oxo-hexahydropyrimidin-2-ylidene]ammonium; 2,2,2-trifluoroacetate], the EC50 amounted to 0.4 nM.
On the same count and under the same terms, then `CCC1(CC)CC(=O)N(Cc2cccc(C(=O)N[C@H]3c4ccccc4OCC3(C)O)c2)C(=N)N1` (stereo in doubt) [Example 131B, 3-[(4,4-diethyl-2-imino-6-oxo-hexahydropyrimidin-1-yl)methyl]-N-(3-hydroxy-3-methyl-chroman-4-yl)benzamide], with 20.2 nM; and `CCC1(CC)CC(=O)N([C@H](C)c2cccc(C(=O)N[C@@H]3c4ccccc4C[C@@]3(C)O)c2)C(=N)N1` [Example 192A, 3-[(1R)-1-(4,4-diethyl-2-imino-6-oxo-hexahydropyrimidin-1-yl)ethyl]-N-[(1R,2R)-2-hydroxy-2-methyl-indan-1-yl]benzamide], with 2.1 nM; and `CCC1(CC)CC(=O)N(Cc2cc(C#N)cc(C(=O)N[C@H]3CCOc4ccccc43)c2)C(=N)N1` [Example 84, [1-[[3-[[(4S)-chroman-4-yl]carbamoyl]-5-cyano-phenyl]methyl]-4,4-diethyl-6-oxo-hexahydropyrimidin-2-ylidene]ammonium; 2,2,2-trifluoroacetate], with 8.3 nM.
Still for that read-out and setting: then `CC1(C)CC(=O)N(Cc2cc(F)cc(C(=O)N[C@@H]3c4cc(F)ccc4OC(C)(C)[C@H]3O)c2)C(=N)N1` (stereo in doubt) [Example 197, [1-[[3-fluoro-5-[(6-fluoro-3-hydroxy-2,2-dimethyl-chroman-4-yl)carbamoyl]phenyl]methyl]-4,4-dimethyl-6-oxo-hexahydropyrimidin-2-ylidene]ammonium; 2,2,2-trifluoroacetate], with 3.4 nM; and `CCC1(CC)CC(=O)N([C@H](c2cccnc2)c2cccc(C(=O)N[C@H]3CC(C)(C)Oc4ccccc43)c2)C(=N)N1` [Example 100A, [1-[[3-[[(4S)-2,2-dimethylchroman-4-yl]carbamoyl]phenyl]-pyridin-1-ium-3-yl-methyl]-4,4-diethyl-6-oxo-hexahydropyrimidin-2-ylidene]ammonium; 2,2,2-trifluoroacetate], with 0.4 nM.
Same read-out and setting: the result for `CCC1(CC)CC(=O)N([C@H](CCOC)c2cc(F)cc(C(=O)N[C@H]3c4ccccc4OC(C)(C)[C@@H]3O)c2)C(=N)N1` (stereo in doubt) [Example 129B, [4,4-diethyl-1-[1-[3-fluoro-5-[(3-hydroxy-2,2-dimethyl-chroman-4-yl)carbamoyl]phenyl]-3-methoxy-propyl]-6-oxo-hexahydropyrimidin-2-ylidene]ammonium; 2,2,2-trifluoroacetate] reads 87 nM.

Staying with this test, now noted: parasite growth measured by LDH assay after 72 hours at 37° C.; 0.7% rings, 2% haematocrit; read-out: EC50.
Consider `CCC1(CC)CC(=O)N([C@H](CCOC)c2cccc(C(=O)N[C@@H]3c4ccccc4OCC3(C)O)c2)C(=N)N1` (stereo in doubt) [Example 143B, 3-[1-(4,4-diethyl-2-imino-6-oxo-hexahydropyrimidin-1-yl)-3-methoxy-propyl]-N-(3-hydroxy-3-methyl-chroman-4-yl)benzamide], for which the EC50 stood at 1.8 nM.

Still in this test, the particulars now being: parasite growth measured by LDH assay after 72 hours at 37° C.; 0.7% rings, 2% haematocrit; trifluoroacetate; read-out: EC50.
Consider `CCC1(CC)CC(=O)N(Cc2cccc(C(=O)N[C@H]3CC(c4ccccc4)Oc4ccccc43)c2)C(=N)N1` (stereo in doubt) [Example 218A, [4,4-diethyl-6-oxo-1-[[3-[(2-phenylchroman-4-yl)carbamoyl]phenyl]methyl]hexa-hydropyrimidin-2-ylidene]ammonium; 2,2,2-trifluoroacetate], for which the EC50 was 55 nM.
The same measure, in the same setting: then `CCC1(CC)CC(=O)N(Cc2cccc(C(=O)N[C@H]3C[C@H](C(F)(F)F)Oc4ccccc43)c2)C(=N)N1` (stereo in doubt) [Example 91A, [4,4-diethyl-6-oxo-1-[[3-[[2-(trifluoromethyl)chroman-4-yl]carbamoyl]phenyl]methyl]hexa-hydropyrimidin-2-ylidene]ammonium; 2,2,2-trifluoroacetate], with 1.9 nM; and `CCC1(CC)CC(=O)N(Cc2cccc(C(=O)N[C@H]3CC(c4ccccc4)Oc4ccccc43)c2)C(=N)N1` (stereo in doubt) [Example 218B, [4,4-diethyl-6-oxo-1-[[3-[(2-phenylchroman-4-yl)carbamoyl]phenyl]methyl]hexa-hydropyrimidin-2-ylidene]ammonium; 2,2,2-trifluoroacetate], with 1.1 nM; and `CCC1(CC)CC(=O)N(C(c2cncc(C(=O)N[C@H]3CC(C)(C)Oc4ccccc43)c2)c2cncs2)C(=N)N1` (stereo partly drawn) [Example 105B, [1-[[5-[[(4S)-2,2-dimethylchroman-4-yl]carbamoyl]pyridin-1-ium-3-yl]-thiazol-5-yl-methyl]-4,4-diethyl-6-oxo-hexahydropyrimidin-2-ylidene]ammonium; 2,2,2-trifluoroacetate], with 0.6 nM.
